Test results: article PMC5155426, “Organic Redox Species in Aqueous Flow Batteries: Redox Potentials, Chemical Stability and Solubility” (Scientific Reports, 2016)
Several values for one entry are separate records, joined by “and”; a condition that tells them apart may be missing. Equal entries are not always repeated. Where two headings read alike, the source gives them in different places.

Assays:
[1] = CV of GC electrode ground with pure anthraquinone (Pourbaix diagram); format: physicochemical; conditions: for E0' of unsubstituted AQ: surface-attached AQ on GC electrode
From the text: Organic R edox Species in Aqueous F low Batteries: R edox Potentials, C hem ical Stab ilit y and So lub ilit y S2: Pure Anthraquinone Pourbaix diagram
The redox potential of pure 9,10 -anthraquinone (Sigma-Aldrich, 97%) was estimated in aqueous solutions at different pH values by measuring the CV response of a GC electrode that had been freshly grinded with anthraquinone mixed with acetone to yield a surface covered/attached species. The CVs are shown in Figure 2, and it is noticed that as the pH increases, there is a significant side- reaction, and it was only possible to obtain reliable data up to pH 10. Thus, the redox potential at pH 13 is only extrapolated. The solutions were freshly prepared and were: 1 M H2SO4 f or pH 0, 0.2 M HCl/KCl buffer for pH 2, Reagecon Technical buffers for pH 4 and 7, 0 . 2 M acetate buffer f or pH 5 and Radiometer Analytical buffer (carbonate) for pH 10.
Figure 2 CVs for the anthraquinone-grinded GC electrode at different […]
Figure 3: The observed standard potential as a function of pH (right).
The line represents linear regression data. Colored arrows indicates the peaks interpreted as the pure AQ peaks used for the Pourbaix […]

[2] = pKa of the central (hydro)quinone groups estimated from the Pourbaix diagram; format: physicochemical; conditions: aqueous media, estimated from slope change in Pourbaix diagram, Fig. 5
Experimental: Quinones generally undergo a reversible two-electron reduction/oxidation. The redox potential is strongly pH dependent, as the reaction may or may not involve two protons as illustrated in the scheme-of-squares mechanistic pathway in Fig. 3 [26]. At pH < pKa1, the reaction includes two protons and thus E^0’ decreases with 59 mV per pH unit (at 25 °C)[24]. At pKa1 < pH < pKa2 and pKa2 < pH only one and no protons are involved, whereby E^0’ decreases with 30 and 0 mV per pH unit, respectively. Generally, the reactions that include protons are slower and result in a lower electrochemical rate constant (k0) and may ultimately lead to higher charge-transfer resistance in the RFB. Thus, the choice of pH in the RFB environment strongly influences quinone electrochemical performance.
Similarly to sulfonated AQs, the positions of the hydroxyl groups affect E^0’, but in acidic only to a small extent. […] The three former all have the hydroxyl groups on positions close to the quinone groups. The difference in E^0’ for these hydroxylated AQs and others may be found in the pKa values of the central (hydro)quinone groups. Those are not trivial to measure given the insolubility at lower pH values for hydroxylated AQs, but they can be estimated from the Pourbaix diagram in Fig. 5 [24][26]. For instance, in the Pourbaix diagram of AQDS(2,7), E^0’ follows the expected −59 mv/pH unit from pH 0 to pH 7 (pKa1). Then the first (hydro)quinone group deprotonates, and the slope changes to 30 mV/pH unit until pH 10 (pKa2) and E^0’ becomes pH-independent. […] Thus, if one can predict or measure reasonable values for these pKa values, it should be possible to predict which ones will have a more negative or positive E^0’ at higher pH.

[3] = Cyclic voltammetry: formal redox potential, peak current ratio, electrochemical reversibility; format: physicochemical
Experimental: The investigated compounds were used as-purchased and without any purification. […] For each series of CVs, a freshly polished electrode was used. The CVs for soluble compounds in 1 mM concentration were recorded in a glass beaker with a customized lid in nitrogen purged solutions of three different pHs, namely pH 0 (1 M H2SO4), pH 7 (0.5 M phosphate buffer) and pH 13 (1 M NaOH). The pH of the NaOH solution is taken as 13 to account for carbonization of the solution with exposure to air. A background CV was recorded before each CV experiment to exclude background contaminations. The CVs of insoluble compounds in 1 M H2SO4, or 0.5 M phosphate buffer were recorded as follows: 6 mL of the supporting electrolyte was mixed with approximately 4 mL of acetone, and then a small amount of the quinone was added so that its concentration was around 1 mM.
Each CV was analyzed in terms of peak potentials and peak currents. Peak currents were determined by subtracting a polynomial fit of the background from the recorded current as exemplified in Supplementary, S1. A plot of the absolute values of the peak currents to the square root of the scan rate was constructed and, when reasonable, a linear fit included to evaluate the electrochemical (Nernstian) reversibility of the electrochemical reaction. The peak current Ip for reversible reactions are given by equation (1).
Where F is the Faraday constant, R the gas constant, T the temperature, n the number of electron transferred, A the area of the electrode, DOthe diffusion coefficient and CO^*the bulk concentration of the analyte and v the scan rate. The peak current ratio is expected to be close to one for reversible species. The formal redox potential (E^0’), which is the adjusted form of the standard redox potential, where effects of the medium is taken into account, is reported here as the midpoint potential between the two peak potentials in the CV[24]. All half-cell potentials in this work refer to the normal hydrogen electrode (VNHE).

[4] = Aqueous solubility estimation (OECD test #105) in 1 M supporting electrolytes; conditions: thermodynamic from solid, Solubility
Experimental: After each addition the test tube was ultrasonicated and/or shaken vigorously using a Vortex Generator for at least 10 minutes at room temperature. Then the tube was inspected visually for undissolved sample and the addition of supporting electrolyte solution continued until the sample seemed just dissolved. The volumes just before and after full dissolution are used for calculating the solubility interval (Supplementary, S4 and S5) and the solubility is estimated as the average between the two.

[5] = Visual inspection of dissolved samples on standing (thixotropy, phase separation); format: physicochemical
Experimental: Dissolved samples were left to stand for 12 hours and visually inspected for thixotropy using a vortex generator. For very insoluble compounds the amount of sample was decreased to 0.01 g and the dissolution time increased up to 24 h.
In practical RFBs thixotropy is not wanted, as the redox solutions can be kept still for long times. […] Thixotropy of AQ dyes in aqueous dispersions has been described earlier, as well as some methods to overcome the problem such as addition of polyvinylpyrrolidone to the solution[43].

[6] = TEMPOL stability in aqueous buffer; format: physicochemical; conditions: after 30 days, uncharged state
Experimental: As an alternative to quinones, the nitroxide radical TEMPOL, was tested. […] This behaviour is similar to previous studies. […] A few other nitrogen-containing redox active species (Fig. 2 and Supplementary, S7) were included.

[7] = read-out: pKa1 of the (hydro)quinone groups
[8] = read-out: pKa2 of the (hydro)quinone groups
[9] = pH 0 (1 M H2SO4), midpoint of CV peak potentials, about 1 mM, acetone added for insoluble compounds

Compound	E0' lower than that of HQ(1,4) ([1]; pH 0)	E0' of unsubstituted AQ ([1]; pH 0)	E0' of unsubstituted AQ ([1]; pH 7)	E0' of unsubstituted AQ, estimated by extrapolation in Fig. 5 ([1]; pH 13, reliable data only up to pH 10)	pKa [2, 7]	pKa [2, 8]	Peak current ratio ([3]; pH 0)	formal redox potential E0' [3, 9]	Peak current ratio ([3]; pH 7)	Electrochemical reversibility ([3]; pH 13)	Peak current ratio ([3]; pH 13)	solubility ([4]; 1 M H2SO4 supporting electrolyte prepared from MilliQ water, aqueous buffer, 1 M H2SO4, room temperature, interval just after / before full dissolution)	solubility ([4]; 1 M KCl supporting electrolyte prepared from MilliQ water, saline or isotonic, 1 M KCl, room temperature)	Electrochemical reversibility ([3]; pH 0)	formal redox potential E0' ([3]; pH 0 (1 M H2SO4); midpoint of CV peak potentials; about 1 mM; acetone added for insoluble compounds; 7))	Electrochemical reversibility ([3]; pH 7)	thixotropy ([5]; all supporting electrolytes, disodium form as received)	Comment: behaviour of the solution upon standing ([5]; electrolyte not stated)	degradation in aqueous buffer [6]
O=C1c2ccccc2C(=O)c2ccccc21 [AQ, 9,10-anthraquinone]	about 300 mV	0.4 VNHE	0 VNHE	~−0.4 VNHE	–	–	–	–	–	–	–	–	–	–	–	–	–	–	–
O=C1c2ccc(O)cc2C(=O)c2ccc(O)cc21 [AQDH(2,6), 2,6-dihydroxy-9,10-anthraquinone]	–	–	–	–	> 13	> 13	0.83(4)	0.039(4) VNHE and 0.04 VNHE	0.9(1)	Reversible	1.1(1)	< 10 mM	< 10 mM	–	–	–	–	–	–
O=C1c2ccc(S(=O)(=O)O)cc2C(=O)c2cc(S(=O)(=O)O)ccc21 [AQDS(2,7), 9,10-anthraquinone-2,7-disulfonate disodium]	–	–	–	–	7	10	0.7(1)	0.165 VNHE	0.56(3)	Reversible	0.96(7)	–	–	Quasireversible	0.165(5) VNHE	Quasireversible	thixotropy was observed	T hixotropic behaviour	–
CC1(C)CC(O)CC(C)(C)N1[O] [TEMPOL, 4-hydroxy-2,2,6,6-tetramethylpiperidine-1-oxyl]	–	–	–	–	–	–	–	–	–	–	–	–	–	–	–	reversible	–	–	no degradation
